Key:
ACAT2 = target: T1, ACAT2 (Mus musculus, UniProt O88908); experiment: Measurement of ACAT2-inhibiting activity (murine hepatic microsome, [14C]cholesteryl oleate formation); format: biochemical; details: for IC50: murine hepatic microsome membrane fraction, 5 min at 37° C., read-out: Inhibitory activity (concentration required for 50% inhibition of ACAT 2 = IC50); for Specific activity ((IC50 of the test compound)/(IC50 of PRD 043)): relative to PRD 043, class symbols
T1 construct: The resulting sediment was collected as a microsome fraction; from tissue; host or cells: mouse liver (hepatic microsome membrane fraction)
T1 sequence (O88908 1-525): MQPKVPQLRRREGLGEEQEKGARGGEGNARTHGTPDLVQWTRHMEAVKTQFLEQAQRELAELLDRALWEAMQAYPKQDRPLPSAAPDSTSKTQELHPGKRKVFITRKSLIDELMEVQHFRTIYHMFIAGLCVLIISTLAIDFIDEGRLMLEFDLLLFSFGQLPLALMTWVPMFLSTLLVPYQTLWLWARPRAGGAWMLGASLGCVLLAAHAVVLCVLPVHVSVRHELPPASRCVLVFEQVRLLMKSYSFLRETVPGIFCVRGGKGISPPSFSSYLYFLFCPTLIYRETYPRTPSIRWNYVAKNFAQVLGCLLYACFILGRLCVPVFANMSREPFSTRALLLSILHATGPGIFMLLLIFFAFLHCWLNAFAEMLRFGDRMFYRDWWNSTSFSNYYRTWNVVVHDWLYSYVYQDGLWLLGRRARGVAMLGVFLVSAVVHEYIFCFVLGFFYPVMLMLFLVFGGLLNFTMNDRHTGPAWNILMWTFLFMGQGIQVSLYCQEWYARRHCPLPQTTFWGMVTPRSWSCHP
Experimental: The enzyme source which was used was a membrane fraction derived from murine hepatic microsome. Mouse livers were homogenized in buffer solution A (50 mM Tris HCl solution (pH 7.8), 1 mM ethylene diamine tetraacetate, and 1 mM phenylmethanesulfonyl fluoride) using a Potter-type homogenizer (Tokyo-Riko). The homogenate was centrifuged at 12000×g, and the supernatant was subjected to ultracentrifugation at 100000×g. The resulting sediment was collected as a microsome fraction, and this fraction was adjusted so as to have a protein concentration of 5 mg/mL using buffer solution A.
As a control, 10 μL of methanol were used in place of the pyripyropene derivative.
The chloroform layer was evaporated to dryness and was used to spot a thin layer chromatography plate (silica gel plate, Merck, 0.5 mm thickness). Elution for separation was carried out using hexane/diethyl ether/acetic acid (70:30:1, v/v) as an eluant.
wherein the background is the radioactivity of a thin layer chromatography plate which was not spotted.

[1] = Stability against metabolizing enzymes in the liver (hepatic microsome); details: time until remaining amount reached 50%, 37° C.; for half-life at 6 μg/mL: female, Sprague-Dawley (SD), rat, liver microsomes, pH 7.4, Half-life; for Half-life: female SD rat hepatic microsome, 6 μg/mL, pH 7.4

SMILES | IC50 (ACAT2) [nM] | Specific activity ((IC50 of the test compound)/(IC50 of PRD 043)) (ACAT2) | half-life at 6 μg/mL [1] [h] | Half-life [1] [h]
CC(=O)OCC1(C)C2C[C@H](OC(=O)c3ccc(C#N)cc3)[C@@]3(C)Oc4cc(-c5cccnc5)oc(=O)c4[C@H](O)C3[C@@]2(C)CC[C@@H]1OC(=O)C(C)C (stereo partly drawn) [PRD119, 7-O-p-cyanobenzoyl-1,7-dideacetyl-1-O-isobutyrylpyripyropene A] | 0.5 to 1 | ++++ (20<specific activity) | ≥ 9 | >9
CC(=O)OCC1(C)C2C[C@H](OC(=O)c3ccc(C#N)cc3)[C@@]3(C)Oc4cc(-c5cccnc5)oc(=O)c4[C@H](O)C3[C@@]2(C)CC[C@@H]1OC(=O)c1ccccc1 (stereo partly drawn) [PRD121, 7-O-p-cyanobenzoyl-1,7-dideacetyl-1-O-benzoylpyripyropene A] | 0.5 to 1 | +++ (10<specific activity≦20) | ≥ 9 | >9
CC12CO[C@@H](c3ccccc3)O[C@H]1CC[C@@]1(C)C2C[C@H](OC(=O)c2ccccc2)[C@@]2(C)Oc3cc(-c4cccnc4)oc(=O)c3[C@H](O)C12 (stereo partly drawn) [PRD122, 1,11-O-benzylidene-7-O-benzoyl-1,7,11-trideacetylpyripyropene A] | 0.5 to 1 | +++ (10<specific activity≦20) | ≥ 9 | >9
Cc1ccccc1[C@@H]1OCC2(C)C3C[C@H](OC(=O)c4ccc(C#N)cc4)[C@@]4(C)Oc5cc(-c6cccnc6)oc(=O)c5[C@H](O)C4[C@@]3(C)CC[C@@H]2O1 (stereo partly drawn) [PRD125, 1,11-O-o-methylbenzylidene-7-O-p-cyanobenzoyl-1,7,11-trideacetylpyripyropene A] | 0.5 to 1 | +++ (10<specific activity≦20) | ≥ 9 | >9
Cc1ccc([C@@H]2OCC3(C)C4C[C@H](OC(=O)c5ccc(C#N)cc5)[C@@]5(C)Oc6cc(-c7cccnc7)oc(=O)c6[C@H](O)C5[C@@]4(C)CC[C@@H]3O2)cc1 (stereo partly drawn) [PRD126, 1,11-O-p-methylbenzylidene-7-O-p-cyanobenzoyl-1,7,11-trideacetylpyripyropene A] | 0.5 to 1 | +++ (10<specific activity≦20) | ≥ 9 | >9
CC(=O)O[C@H]1CC[C@@]2(C)C(C[C@H](OC(=O)c3ccc(C#N)cc3)[C@@]3(C)Oc4cc(-c5cccnc5)oc(=O)c4[C@H](O)C23)C1(C)COC(=O)c1ccccc1 (stereo partly drawn) [PRD143, 7-O-p-cyanobenzoyl-7,11-dideacetyl-11-O-benzoylpyripyropene A] | 0.5 to 1 | +++ (10<specific activity≦20) | ≥ 9 | >9
Cc1ccccc1[C@@H]1OCC2(C)C3C[C@H](OC(=O)c4ccc(F)cc4)[C@@]4(C)Oc5cc(-c6cccnc6)oc(=O)c5[C@H](O)C4[C@@]3(C)CC[C@@H]2O1 (stereo partly drawn) [PRD155, 1,11-O-o-methylbenzylidene-7-O-p-fluorobenzoyl-1,7,11-trideacetylpyripyropene A] | 0.5 to 1 | +++ (10<specific activity≦20) | ≥ 9 | >9
Cc1cccc([C@@H]2OCC3(C)C4C[C@H](OC(=O)c5ccc(F)cc5)[C@@]5(C)Oc6cc(-c7cccnc7)oc(=O)c6[C@H](O)C5[C@@]4(C)CC[C@@H]3O2)c1 (stereo partly drawn) [PRD158, 1,11-O-m-methylbenzylidene-7-O-p-fluorobenzoyl-1,7,11-trideacetylpyripyropene A] | 1 to 10 | +++ (10<specific activity≦20) | ≥ 9 | >9
Cc1ccc([C@@H]2OCC3(C)C4C[C@H](OC(=O)c5ccc(C#N)cc5)[C@@]5(C)Oc6cc(-c7cccnc7)oc(=O)c6[C@H](O)C5[C@@]4(C)CC[C@@H]3O2)c(C)c1 (stereo partly drawn) [PRD159, 1,11-O-o,p-dimethylbenzylidene-7-O-p-cyanobenzoyl-1,7,11-trideacetylpyripyropene A] | 0.5 to 1 | +++ (10<specific activity≦20) | ≥ 9 | >9

Second part, the compound after the results:

IC50 (ACAT2) [nM] | Specific activity ((IC50 of the test compound)/(IC50 of PRD 043)) (ACAT2) | half-life at 6 μg/mL [1] [h] | Half-life [1] [h] | SMILES
0.5 to 1 | +++ (10<specific activity≦20) | ≥ 9 | >9 | COc1ccc(C(OC)O[C@H]2CC3C4(C)CO[C@@H](c5ccccc5)O[C@H]4CC[C@]3(C)C3[C@@H](O)c4c(cc(-c5cccnc5)oc4=O)O[C@@]32C)cc1 (stereo partly drawn) [PRD073, 1,11-O-benzylidene-1,7,11-trideacetyl-7-O-(1-methoxy-1-p-methoxyphenyl)methylpyripyropene A]
0.5 to 1 | +++ (10<specific activity≦20) | ≥ 9 | >9 | CC(C)C(=O)OCC1(C)C2C[C@H](OC(=O)C3CCCCC3)[C@@]3(C)Oc4cc(-c5cccnc5)oc(=O)c4[C@H](O)C3[C@@]2(C)CC[C@@H]1OC(=O)C(C)C (stereo partly drawn) [PRD074, 7-O-cyclohexanecarbonyl-1,11-O-diisobutyryl-1,7,11-trideacetylpyripyropene A]
0.5 to 1 | +++ (10<specific activity≦20) | ≥ 9 | >9 | CC(C)C(=O)OCC1(C)C2C[C@H](OC(=O)c3ccc([N+](=O)[O-])cc3)[C@@]3(C)Oc4cc(-c5cccnc5)oc(=O)c4[C@H](O)C3[C@@]2(C)CC[C@@H]1OC(=O)C(C)C (stereo partly drawn) [PRD079, 7-O-p-nitrobenzoyl-1,11-O-diisobutyryl-1,7,11-trideacetylpyripyropene A]
0.5 to 1 | +++ (10<specific activity≦20) | > 9 | – | CC12CO[C@@H](c3ccccc3)O[C@H]1CC[C@@]1(C)C2C[C@H](OC(=O)C2CCCCC2)[C@@]2(C)Oc3cc(-c4cccnc4)oc(=O)c3[C@H](O)C12 (stereo partly drawn) [PRD080, 1,11-O-benzylidene-7-O-cyclohexanecarbonyl-1,7,11-trideacetylpyripyropene A]
< 0.5 | ++++ (20<specific activity) | ≥ 9 | >9 | CN(C)c1ccc([C@@H]2OCC3(C)C4C[C@H](OC(=O)c5ccc(C#N)cc5)[C@@]5(C)Oc6cc(-c7cccnc7)oc(=O)c6[C@H](O)C5[C@@]4(C)CC[C@@H]3O2)cc1 (stereo partly drawn) [PRD123, 1,11-O-p-dimethylaminobenzylidene-7-O-p-cyanobenzoyl-1,7,11-trideacetylpyripyropene A]
< 0.5 | ++++ (20<specific activity) | ≥ 9 | >9 | Cc1ccc([C@@H]2OCC3(C)C4C[C@H](OC(=O)c5ccc(F)cc5)[C@@]5(C)Oc6cc(-c7cccnc7)oc(=O)c6[C@H](O)C5[C@@]4(C)CC[C@@H]3O2)cc1 (stereo partly drawn) [PRD156, 1,11-O-p-methylbenzylidene-7-O-p-fluorobenzoyl-1,7,11-trideacetylpyripyropene A]
< 0.5 | ++++ (20<specific activity) | ≥ 9 | >9 | Cc1cccc(C2OCC3(C)C(CCC4(C)C3CC(OC(=O)c3ccc(C#N)cc3)C3(C)Oc5cc(-c6cccnc6)oc(=O)c5C(O)C43)O2)c1 (stereo not drawn) [PRD157, 1,11-O-m-methylbenzylidene-7-O-p-cyanobenzoyl-1,7,11-trideacetylpyripyropene A]
